Results: patent US20230023092A1, “TREATMENT OF DEPRESSION AND OTHER VARIOUS DISORDERS WITH PSILOCYBIN” (COMPASS […], priority 2019, published 2023)

Columns and labels:
healthy subjects [1] = experiment: NEO-Five Factor Inventory (NEO-FFI); type: in vivo, human
Method: In some embodiments, the NEO-Five Factor Inventory (NEO-FFI) test is used to evaluate the safety and/or efficacy of psilocybin. The NEO-FFI evaluates 5 broad domains of personality—Neuroticism, Extroversion, Openness, Agreeableness and Conscientiousness.
(§1) The Neuroticism Extraversion Openness-Five Factor Inventory (NEO-FFI) and Symptom Checklist-90 Item (SCL-90) were administered. Details of the MMRM applied to the change from baseline scores for the NEO-FFI and SCL-90 are provided below in Table 2Q.

healthy subjects [2] = experiment: Symptom Checklist-90 Item (SCL-90); type: in vivo, human; conditions: Day 7
Description: In some embodiments, the Symptom Checklist-90 item (SCL-90) questionnaire is used to evaluate the safety and/or efficacy of psilocybin. The SCL-90 is a relatively brief self-report psychometric instrument designed to evaluate a broad range of psychological problems and symptoms of psychopathology. In some embodiments, the SCL-90 is used to assess somatization, obsessive-compulsive behaviors, interpersonal sensitivity, depression, anxiety, hostility, phobic anxiety, paranoid ideation, and psychoticism of a subject treated according to the methods of the disclosure. The 90 items in the questionnaire are scored on a 5-point Likert scale, indicating the rate of occurrence of the symptom during the time reference. In some embodiments, after treating according to the methods of the disclosure, a subject's SCL-90 score decreases by about 5% to about 100%, for example, by about 5%, about 10%, about 15%, about 20%, about 25%, about 30%, about 35%, about 40%, about 45%, about 50%, about 55%, about 60%, about 65%, about 70%, about 75%, about 80%, about 85%, about 90%, about 95%, or about 100%.
as §1

[3] = Day 7, psilocybin 10 mg - placebo
[4] = Day 7, psilocybin 25 mg - 10 mg
[5] = Day 7, psilocybin 25 mg - placebo
[6] = Day 84, psilocybin 10 mg - placebo
[7] = Day 84, psilocybin 25 mg - 10 mg
[8] = Day 84, psilocybin 25 mg - placebo

CN(C)CCc1c[nH]c2cccc(OP(=O)(O)O)c12 [Psilocybin, psilocybin]
NEO agreeableness change from baseline, LS mean (healthy subjects [1]; Day 7, psilocybin 10 mg): −0.2 | NEO conscientiousness change from baseline, LS mean (healthy subjects [1]; Day 7, psilocybin 10 mg): −0.1 | NEO extraversion change from baseline, LS mean (healthy subjects [1]; Day 7, psilocybin 10 mg): 0.3 | NEO neuroticism change from baseline, LS mean (healthy subjects [1]; Day 7, psilocybin 10 mg): 0.2 | NEO openness change from baseline, LS mean (healthy subjects [1]; Day 7, psilocybin 10 mg): 0.3 | NEO agreeableness change from baseline, LS mean difference (healthy subjects [1]; [3]): −0.4 | NEO conscientiousness change from baseline, LS mean difference (healthy subjects [1]; [3]): 0.4 | NEO extraversion change from baseline, LS mean difference (healthy subjects [1]; [3]): 0.4 | NEO neuroticism change from baseline, LS mean difference (healthy subjects [1]; [3]): −0.2 | NEO openness change from baseline, LS mean difference (healthy subjects [1]; [3]): 1.1 | NEO agreeableness change from baseline, LS mean (healthy subjects [1]; Day 7, psilocybin 25 mg): 0.1 | NEO conscientiousness change from baseline, LS mean (healthy subjects [1]; Day 7, psilocybin 25 mg): 0.1 | NEO extraversion change from baseline, LS mean (healthy subjects [1]; Day 7, psilocybin 25 mg): 0.3 | NEO neuroticism change from baseline, LS mean (healthy subjects [1]; Day 7, psilocybin 25 mg): 0.2 | NEO openness change from baseline, LS mean (healthy subjects [1]; Day 7, psilocybin 25 mg): 0.4 | NEO agreeableness change from baseline, LS mean difference (healthy subjects [1]; [4]): 0.4 | NEO conscientiousness change from baseline, LS mean difference (healthy subjects [1]; [4]): 0.3 | NEO extraversion change from baseline, LS mean difference (healthy subjects [1]; [4]): 0.1 | NEO neuroticism change from baseline, LS mean difference (healthy subjects [1]; [4]): −0.0 | NEO openness change from baseline, LS mean difference (healthy subjects [1]; [4]): 0.1 | NEO agreeableness change from baseline, LS mean difference (healthy subjects [1]; [5]): −0.1 | NEO conscientiousness change from baseline, LS mean difference (healthy subjects [1]; [5]): 0.7 | NEO extraversion change from baseline, LS mean difference (healthy subjects [1]; [5]): 0.5 | NEO neuroticism change from baseline, LS mean difference (healthy subjects [1]; [5]): 0.2 | NEO openness change from baseline, LS mean difference (healthy subjects [1]; [5]): 1.2 | NEO agreeableness change from baseline, LS mean (healthy subjects [1]; Day 84, psilocybin 10 mg): −0.9 | NEO conscientiousness change from baseline, LS mean (healthy subjects [1]; Day 84, psilocybin 10 mg): −1.3 | NEO extraversion change from baseline, LS mean (healthy subjects [1]; Day 84, psilocybin 10 mg): −0.9 | NEO neuroticism change from baseline, LS mean (healthy subjects [1]; Day 84, psilocybin 10 mg): 2.1 | NEO openness change from baseline, LS mean (healthy subjects [1]; Day 84, psilocybin 10 mg): 0.4 | NEO agreeableness change from baseline, LS mean difference (healthy subjects [1]; [6]): −0.8 | NEO conscientiousness change from baseline, LS mean difference (healthy subjects [1]; [6]): 0.2 | NEO extraversion change from baseline, LS mean difference (healthy subjects [1]; [6]): −0.7 | NEO neuroticism change from baseline, LS mean difference (healthy subjects [1]; [6]): 0.3 | NEO openness change from baseline, LS mean difference (healthy subjects [1]; [6]): 1.1 | NEO agreeableness change from baseline, LS mean (healthy subjects [1]; Day 84, psilocybin 25 mg): −0.9 | NEO conscientiousness change from baseline, LS mean (healthy subjects [1]; Day 84, psilocybin 25 mg): −0.1 | NEO extraversion change from baseline, LS mean (healthy subjects [1]; Day 84, psilocybin 25 mg): −0.7 | NEO neuroticism change from baseline, LS mean (healthy subjects [1]; Day 84, psilocybin 25 mg): 0.8 | NEO openness change from baseline, LS mean (healthy subjects [1]; Day 84, psilocybin 25 mg): 0.3 | NEO agreeableness change from baseline, LS mean difference (healthy subjects [1]; [7]): 0.1 | NEO conscientiousness change from baseline, LS mean difference (healthy subjects [1]; [7]): 1.2 | NEO extraversion change from baseline, LS mean difference (healthy subjects [1]; [7]): 0.2 | NEO neuroticism change from baseline, LS mean difference (healthy subjects [1]; [7]): −1.3 | NEO openness change from baseline, LS mean difference (healthy subjects [1]; [7]): −0.7 | NEO agreeableness change from baseline, LS mean difference (healthy subjects [1]; [8]): −0.7 | NEO conscientiousness change from baseline, LS mean difference (healthy subjects [1]; [8]): 1.4 | NEO extraversion change from baseline, LS mean difference (healthy subjects [1]; [8]): −0.5 | NEO neuroticism change from baseline, LS mean difference (healthy subjects [1]; [8]): −1.0 | NEO openness change from baseline, LS mean difference (healthy subjects [1]; [8]): 0.4 | SCL-90-somatisation change from baseline, LS mean (healthy subjects [2]; psilocybin 10 mg): 0.1 | SCL-90 anger hostility change from baseline, LS mean (healthy subjects [2]; psilocybin 10 mg): −0.0 | SCL-90 anxiety change from baseline, LS mean (healthy subjects [2]; psilocybin 10 mg): −0.0 | SCL-90 depression change from baseline, LS mean (healthy subjects [2]; psilocybin 10 mg): 0.0 | SCL-90 interpersonal sensitivity change from baseline, LS mean (healthy subjects [2]; psilocybin 10 mg): −0.0 | SCL-90 obsessive compulsive change from baseline, LS mean (healthy subjects [2]; psilocybin 10 mg): −0.1 | SCL-90 paranoid ideation change from baseline, LS mean (healthy subjects [2]; psilocybin 10 mg): −0.0 | SCL-90 phobic anxiety change from baseline, LS mean (healthy subjects [2]; psilocybin 10 mg): −0.0 | SCL-90 psychoticism change from baseline, LS mean (healthy subjects [2]; psilocybin 10 mg): 0.0 | SCL-90-somatisation change from baseline, LS mean difference (healthy subjects [2]; psilocybin 10 mg - placebo): 0.1 | SCL-90 anger hostility change from baseline, LS mean difference (healthy subjects [2]; psilocybin 10 mg - placebo): −0.0 | SCL-90 anxiety change from baseline, LS mean difference (healthy subjects [2]; psilocybin 10 mg - placebo): −0.0 | SCL-90 depression change from baseline, LS mean difference (healthy subjects [2]; psilocybin 10 mg - placebo): 0.0 | SCL-90 interpersonal sensitivity change from baseline, LS mean difference (healthy subjects [2]; psilocybin 10 mg - placebo): −0.0 | SCL-90 obsessive compulsive change from baseline, LS mean difference (healthy subjects [2]; psilocybin 10 mg - placebo): 0.1 | SCL-90 paranoid ideation change from baseline, LS mean difference (healthy subjects [2]; psilocybin 10 mg - placebo): 0.0 | SCL-90 phobic anxiety change from baseline, LS mean difference (healthy subjects [2]; psilocybin 10 mg - placebo): −0.0 | SCL-90 psychoticism change from baseline, LS mean difference (healthy subjects [2]; psilocybin 10 mg - placebo): 0.0 | SCL-90-somatisation change from baseline, LS mean (healthy subjects [2]; psilocybin 25 mg): 0.1 | SCL-90 anger hostility change from baseline, LS mean (healthy subjects [2]; psilocybin 25 mg): −0.0
